This note sets out measurements from PubChem BioAssay (NCI).

SMILES strings stand for the structures.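 Cultured in 96-well plates, cells were exposed to test compound for 48 hours across five concentrations. The concentration for full growth arrest is given as TGI.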

Assay in all cases: inhibition of tumour cell growth, NCI panel, 48 h
In test [1] the test system is MOLT-4 leukemia.
The subject of test [2] is SK-MEL-2 melanoma.
Test [3] deals with SR leukemia.
The subject of test [4] is SF-295 CNS.
The test system of test [5] is SNB-75 CNS.
Test [6] concerns HCT-15 colon.
Test [7] relates to HOP-62 NSCLC.
The subject of test [8] is SW-620 colon.
Test [9] has as its system NCI-H226 lung.
The subject of test [10] is MCF7 breast.
The subject of test [11] is SN12C renal.
In test [12] the test system is NCI-H23 lung.
Test [13] concerns CCRF-CEM leukemia.
Test [14] concerns UO-31 renal.
The test system of test [15] is HS 578T breast.
Test [16] has as its system SK-MEL-28 melanoma.
Test [17] concerns UACC-257 melanoma.
Test [18] has as its system PC-3 prostate.

`O=c1[nH]c(=O)n(C/C=C/CO)nc1Br`: the TGI in test [1], in test [2], in [3], in test [4], in [5] and in test [6] was more than 100 µM in each case. For the same molecule, the TGI in test [7], in test [8], in test [9], in test [10], in [11] and in [12] was more than 100 µM in each case. The TGI in test [13], in [14], in test [15], in test [16], in test [17] and in [18] was more than 100 µM each time.

In the case of `CCCN(CCc1ccc(-c2ccccc2)cc1)CCc1ccc2n[nH]nc2c1`, the TGI turned out to be 19.1 µM in test [1]; 33.4 µM in test [2]; 17.9 µM in [3]; 27.5 µM in [4]; 30.6 µM in test [5]; 21.4 µM in [6]. Further, the TGI is 26.3 µM in test [7]; 36.3 µM in [8]; 36.7 µM in [9]; more than 51.2 µM in test [10]; 27.4 µM in test [11]; 25.8 µM in test [12]. For the same molecule, the TGI in test [13] came out at 19.4 µM; in test [14], 22.4 µM; in test [15], 51.8 µM; in [16], 13.6 µM; in test [17], 17.1 µM; in test [18] it was 22.1 µM.

Turning to `CSC1=N/C(=C\c2ccc(C)cc2)C(=O)N1`, the TGI in test [1], in [2], in test [3], in [4], in [5] and in test [6] was more than 100 µM each time. Moreover, the TGI in test [7], in test [8], in test [9], in test [10], in test [11] and in test [12] was more than 100 µM each time. In addition, the TGI in test [13], in test [14], in [15], in [16], in test [17] and in [18] was more than 100 µM throughout.

For `Cn1c(-c2cccs2)cc(-c2cccs2)c1-c1cccs1`, the TGI in test [1], in test [2], in test [3], in test [4], in test [5] and in test [6] was more than 100 µM each time. Further, the TGI in test [7], in test [8], in test [9], in test [10], in test [11] and in test [12] was more than 100 µM each time. The TGI in test [13], in test [14], in test [15], in [16], in test [17] and in test [18] was more than 100 µM in each case.

Take `CC1=NN(c2cccc(S(=O)(=O)O)c2)C2(C1)C(Cl)C(=O)N2c1nc2ccccc2s1` (stereo not given): the TGI was determined as 11.8 µM in test [1]; 15.4 µM in test [2]; 17.4 µM in test [3]; 28 µM in test [4]; 13.1 µM in [5]; 17.8 µM in test [6]. Also, the TGI is 17.9 µM in test [7]; 21.1 µM in test [8]; 22.2 µM in test [9]; 25 µM in [10]; 19.9 µM in test [11]; 13.5 µM in test [12]. The TGI was 3.67 µM in test [13]; 8.27 µM in test [14]; more than 80.7 µM in [15]; 36.1 µM in [16]; 28.3 µM in test [17]; 22.9 µM in [18].

Regarding `CC12Nc3c(Cl)cc(Cl)cc3N1C(=O)c1ccccc12` (stereo not given), the TGI in [1], in test [2], in test [3], in test [4], in test [5] and in [6] was more than 100 µM each time. The TGI in [7], in [8], in test [9], in [10], in test [11] and in test [12] was more than 100 µM each time. In addition, the TGI in [13], in test [14], in test [15], in test [16], in test [17] and in test [18] was more than 100 µM in each case.

Consider `CC[C@]12C=CCN3CC[C@@]4(c5cc(Br)c(OC)c([N+](=O)[O-])c5N(C)[C@H]4[C@@](O)(C(=O)OC)[C@@H]1OC(C)=O)[C@@H]32`, for which the TGI in test [1] is 70.6 µM; in test [2], more than 100 µM; in [3], more than 100 µM; in test [4], more than 100 µM; in [5] it was more than 100 µM; in test [6], more than 100 µM. In addition, the TGI in test [7], in test [8], in [9], in [10], in [11] and in [12] was more than 100 µM each time. Further, the TGI in [13], in test [14], in test [15], in [16], in test [17] and in [18] was more than 100 µM throughout.

Turning to `O=C1c2ccccc2-c2nnc(-c3ccc([N+](=O)[O-])cc3)cc21`, the TGI in test [1], in [2], in test [3], in test [4], in test [5] and in test [6] was more than 10 µM throughout. In addition, the TGI in test [7], in test [8], in test [9], in test [10], in [11] and in [12] was more than 10 µM in each case. Moreover, the TGI in test [13], in [14], in test [15], in [16], in [17] and in test [18] was more than 10 µM each time.

As for `Cc1sc2nc(N(C)C)oc(=O)c2c1C`, the TGI in test [1], in [2], in [3], in test [4], in test [5] and in test [6] was more than 100 µM each time. For the same molecule, the TGI in [7], in [8], in test [9], in test [10], in test [11] and in test [12] was more than 100 µM throughout. Moreover, the TGI in test [13], in test [14], in [15], in test [16], in test [17] and in test [18] was more than 100 µM throughout.

`CC(C)CCCC(C)[C@H]1CC[C@H]2n3c(nnc3-c3ccccc3)CCC[C@]12C` (stereo not given in full): the TGI in test [1] turned out to be 13.2 µM; in test [2], 29.8 µM; in test [3] it was 26.3 µM; in test [4], 21.9 µM; in test [5], 35.3 µM; in test [6] it was 68.9 µM. The TGI in test [7] is 37.5 µM; in [8], 47.5 µM; in [9], 37.5 µM; in test [10], 20.7 µM; in [11], 27.5 µM; in test [12], 28.8 µM. For the same molecule, the TGI in test [13] was 24.6 µM; in test [14], 23.2 µM; in [15], 43.3 µM; in [16], 37.1 µM; in test [17] it was 26.9 µM; in test [18], 44.9 µM.

Consider `C[C@]12CC[C@H]3[C@@H](CCC4=CC(=O)CC[C@@H]43)[C@@H]1CC[C@]2(O)C(N)=O`, for which the TGI in [1], in test [2], in test [3], in [4], in [5] and in test [6] was more than 100 µM each time. For the same molecule, the TGI in test [7], in [8], in [9], in test [10], in test [11] and in [12] was more than 100 µM throughout. Also, the TGI in test [13], in [14], in [15], in test [16], in test [17] and in test [18] was more than 100 µM in each case.

With `COC(=O)C1C2OC(C)(C)OC2CN1S(=O)(=O)c1ccc(C)cc1` (stereo not given), the TGI in test [1], in test [2], in test [3], in test [4], in test [5] and in test [6] was more than 100 µM in each case. Further, the TGI is more than 100 µM in test [7]; more than 100 µM in test [8]; 41.1 µM in [9]; more than 100 µM in test [10]; more than 100 µM in test [11]; more than 100 µM in [12]. The TGI in [13], in test [14], in [15], in [16], in [17] and in test [18] was more than 100 µM in each case.

Regarding `CCOC(=O)CC[C@H](N)C(=O)N[C@@H](Cc1ccc(N(CCCl)CCCl)cc1)C(=O)OCC`, the TGI in test [1] is 3.61 µM; in [2], 5.28 µM; in test [3], more than 42.2 µM; in test [4] it was 14.8 µM; in test [5], 4.44 µM; in test [6], 3.86 µM. Besides, the TGI in test [7] was found to be 9.94 µM; in test [8], 5.87 µM; in [9], 28.8 µM; in test [10], 15.5 µM; in [11] it was 9.22 µM; in test [12], 1.35 µM. For the same molecule, the TGI was 4.5 µM in [13]; 3.44 µM in [14]; 4.92 µM in [15]; 2.38 µM in test [16]; 5.09 µM in test [17]; 7.46 µM in test [18].

In the case of `CC(NC(=O)OCc1ccccc1)NC(=O)OC(C)(C)C` (stereo not given), the TGI in test [1], in test [2], in test [3], in test [4], in test [5] and in test [6] was more than 100 µM in each case. Also, the TGI in test [7], in test [8], in test [9], in test [10], in [11] and in test [12] was more than 100 µM throughout. The TGI in [13], in test [14], in test [15], in test [16], in test [17] and in [18] was more than 100 µM in each case.

Take `C=CCN1C(=O)/C(=C/c2ccc(Cl)cc2)N=C1SC/C=C/C`: the TGI in [1] is 43.8 µM; in test [2] it was 68.2 µM; in [3], 46.7 µM; in test [4] it was more than 100 µM; in test [5], more than 100 µM; in test [6], more than 100 µM. In addition, the TGI in test [7] was more than 100 µM; in [8], more than 100 µM; in [9] it was more than 100 µM; in test [10], 84.3 µM; in [11], 71.1 µM; in [12], more than 100 µM. In addition, the TGI in test [13], in [14], in test [15], in test [16], in test [17] and in test [18] was more than 100 µM in each case.
